Source: PubChem BioAssay AID602464 (Sanford-Burnham Center for Chemical Genomics, 2012)
pIC50: −log10 of the molar value. Calls of active or inactive are those of the source. Rule as the data show it: active = IC50 below about 20 µM; inactive = the rest.

Tested on: Gli-responsive luciferase reporter cells, SUFU pathway antagonism
Test: Gli-SUFU pathway antagonists, dose response, cell-based, luciferase luminescence, uHTS hits (AID 602464)

| Structure (SMILES) | pIC50 | IC50 |
| --- | --- | --- |
| CCOc1ccc2[nH]c3c(N4CCN(C(=O)c5ccco5)CC4)ncnc3c2c1 | 5.15 | – |
| Brc1ccc(-c2c[n+]3c(n2-c2ccccc2)SCC3)cc1 | 5.16 | – |
| Cc1cc(N/N=C/c2ccc(O)cc2O)nc(-n2nc(C)cc2C)n1 | 5.14 | – |
| Cc1ccc(OCCN2CCN(c3ncnc4sc(C)c(C)c34)CC2)cc1 | 5.54 | – |
| S=C(Nc1ccccc1)N1CCC(Cc2ccccc2)CC1 | 5.25 | – |
| Cc1nn(-c2ccc(NC(=O)c3ccncc3)cc2)c(C)c1Cl | 5.03 | – |
| CCc1cc(C(=O)NC2CCCN(Cc3ccccc3F)C2)n(C)n1 (stereo not drawn) | 4.88 | – |
| CCc1c(C)nc2ncnn2c1N1CCN(S(=O)(=O)c2ccc(OC)cc2)CC1 | 5.18 | – |
| CCn1c(=O)cc(SCC(=O)N2CCN(C3CCCCC3)CC2)c2ccccc21 | 4.92 | – |
| CC1Cc2cc(S(=O)(=O)N3CCC(C(=O)N4CCN(c5ccccc5F)CC4)CC3)ccc2N1C(=O)C1CC1 (stereo not drawn) | 5.37 | – |
| O=C(Nc1ccc(C(F)(F)F)cc1)C1CCN(S(=O)(=O)c2ccc(N3CCCC3=O)cc2)CC1 | 5.49 | – |
| CCOC(=O)c1c(NC(=O)COc2ncnc3ccccc23)sc(C(C)=O)c1C | 5.00 | – |
| COc1cccc(CN(C)C(=O)c2cc(COc3ccc4ncccc4c3)on2)c1 | 5.27 | – |
| Cc1nc2ccccc2n1CC(=O)NC(C)C1CC2CCC1C2 (stereo not drawn) | 5.10 | – |
| Cc1cc(Nc2ccc([N+](=O)[O-])cc2)c2ccccc2n1 | – | > 20 µM (inactive) |
| O=[N+]([O-])c1ccc(N2CCN(C(=S)NCc3ccc(Cl)cc3)CC2)cc1 | 4.92 | – |
| CC(C)(C)C1CCC(OC(=O)C[N+]2(C)CCCCC2)CC1 (stereo not drawn) | – | > 20 µM (inactive) |
| O=c1c2ccccc2nc2n1C(CSCc1cccc(C(F)(F)F)c1)CS2 (stereo not drawn) | 5.41 | – |

| Structure (SMILES) | pIC50 | IC50 |
| --- | --- | --- |
| O=C(Cc1csc(Nc2nc(=S)[nH]c3ccccc23)n1)NCCCN1CCN(c2ccccc2F)CC1 | – | > 20 µM (inactive) |
| O=C(N[C@H]1C/C=C\C[C@@H](CC(=O)N(CCO)Cc2ccccc2)C(=O)N[C@H](Cc2c[nH]c3ccccc23)COC1=O)OCC1c2ccccc2-c2ccccc21 | 4.98 | – |
| CCN(CC)S(=O)(=O)c1ccc(S(=O)(=O)Nc2c(C)nn(C)c2C)cc1 | 5.21 | – |
| COCCOc1nc2c(c(=O)n(C)c(=O)n2C)n1Cc1cccc(OC)c1 | 5.02 | – |
| CCc1ccccc1NC(=S)N=Nc1c(O)n(C)c2ccc(S(=O)(=O)N3CCOCC3)cc12 | 4.96 | – |
| CCC(CC)CN1C(N(C)C)=NC[C@@H]1CC(C)C | 5.08 | – |
| CNc1ccccc1C(C)(C)c1cc(-c2cccc(Br)c2)no1 | 5.69 | – |
| CC1CCN(Cc2c(C(=O)N/N=C/c3ccccc3O)nnn2-c2nonc2N)CC1 | 5.25 | – |
| CCOc1ccc(NS(=O)(=O)c2cccc(C(=O)N3CCN(C/C=C/c4ccccc4)CC3)c2)cc1 | – | > 20 µM (inactive) |
| C/C(=N\Nc1ccc(Cl)nn1)c1ccccc1O | – | > 20 µM (inactive) |
| CCC(=O)c1ccc(OCC(O)Cn2c(C)nc3ccccc32)cc1 (stereo not drawn) | 5.10 | – |
| CCN(CC)S(=O)(=O)c1ccc(S(=O)(=O)N2CCCC(C(=O)NC3CC3)C2)cc1 (stereo not drawn) | 5.12 | – |
| Cc1ccc(Cl)cc1N1CCN(C(=O)CSc2nnc3n2C(C)(C)Cc2ccccc2-3)CC1 | 5.12 | – |
| COc1ccc(N2CCN(c3ncnc4c3[nH]c3ccccc34)CC2)cc1 | 5.60 | – |
| CCc1nc(N)nc(N)c1-c1ccc(N(C)Cc2ccccc2)c([N+](=O)[O-])c1 | 5.80 | – |
| CCOC(=O)c1c(NC(=O)COc2cccc3c2CCN(C)C3=O)sc2c1CCC2 | 5.07 | – |
| Cc1ccsc1CNc1ncnc2ccc(-c3c(C)noc3C)cc12 | 5.35 | – |

The remaining lines, values ahead:

| pIC50 | IC50 | Structure (SMILES) |
| --- | --- | --- |
| 4.91 | – | CCN(CC(=O)Nc1c(F)cccc1F)C(=O)c1cc(S(=O)(=O)N(CC)CC)ccc1N1CCCCC1 |
| – | > 20 µM (inactive) | O=c1c2ccccc2sc2c(CO)ccc(NCCN3CCCCC3)c12 |
| 5.64 | – | O=C(Nc1nc(-c2cccs2)cs1)c1cccc(S(=O)(=O)N2CCCCCC2)c1 |
| 5.27 | – | Cc1sc2ncnc(N3CCN(S(=O)(=O)c4ccc(C(C)(C)C)cc4)CC3)c2c1C |
| 5.19 | – | Fc1ccc(-n2nnnc2-c2cnc(-c3cccs3)nc2C(F)(F)F)cc1 |
| – | > 20 µM (inactive) | CCOC(CN=c1nc(N(C)C)ss1)OCC |
| – | > 20 µM (inactive) | NC(=O)CC(NC(=O)c1ccccc1)c1ccc(N2CCCCCC2)c([N+](=O)[O-])c1 (stereo not drawn) |
| 5.44 | – | C(#Cc1ccccc1)C[N+]1(CC#Cc2cccc3ccccc23)CCCC1 |
| 5.31 | – | Cc1ccc(C(=O)N2CCN3C(=O)c4ccccc4C23c2ccc(Cl)cc2)cc1 (stereo not drawn) |
| – | > 20 µM (inactive) | CC(C)(C)OC(=O)N1CCC(c2cc(-c3cccs3)n[nH]2)CC1 |
| 5.31 | – | CCCCOc1ncnc2c1[nH]c1ccc(F)cc12 |
| 5.33 | – | O=C(c1cc2sccc2n1Cc1ccccc1)N1CCN(c2nc3ccccc3s2)CC1 |
| 5.42 | – | CC(C)(C)c1ccc(CN2C3=NCCCN3c3ccccc32)cc1 |
| – | > 20 µM (inactive) | c1ccc(-c2c[n+]3c(n2-c2ccccc2)CCC3)cc1 |
| 6.19 | – | Cn1c(=O)c2c(nc(NCc3ccco3)n2Cc2ccc(Cl)cc2Cl)n(C)c1=O |
| 4.92 | – | C=CCNC(=S)/N=c1/ccccn1Cc1ccccc1 |
| 5.39 | – | COCCn1c(CN2CCC(Cc3ccccc3)CC2)nc2c1c(=O)n(C)c(=O)n2C |
| 5.82 | – | O=C(c1cc(COc2cccc3cnccc23)on1)N1CCCC(CCCO)C1 (stereo not drawn) |
